Data: PMC11106165, “Repurposing the KCa3.1 Blocker Senicapoc for Ischemic Stroke” (Translational Stroke Research, 2023)

How the values were obtained:
[1] = system: MMC (mouse microglial cell line); experiment: RT-qPCR of inflammatory markers in LPS-stimulated MMC; format: cell-based; settings: 24 h 100 ng/mL LPS
Procedure: An immortalized mouse microglial cell (MMC) line was kindly provided by Dr. D.T. Golenbock (University of Massachusetts Medical School, Worcester, MA) and previously used by our laboratory. Cells were cultured in Gibco’s Dulbecco’s modified Eagle’s Medium (DMEM, high glucose, L-glutamine, high pyruvate) with 5% CO2 at 37° with 1% penicillin/streptomycin and 10% fetal bovine serum. For the qPCR experiments, cells were seeded at 200,000 cells/mL; 24 h later, medium was changed to DMEM with 2% FBS and cells were stimulated with 100 ng/mL lipopolysaccharide (LPS), in the presence or absence of senicapoc, or a 0.2% DMSO control. Cells were pre-incubated with senicapoc for 1 h prior to stimulation and harvested 24 h after stimulation.
After MRIs were completed, mice were euthanized with an overdose of isoflurane, brains harvested, split into ipsilateral and contralateral hemispheres, and immediately frozen with liquid N2. Brain hemispheres were homogenized in mortar and pestles with liquid N2. RNA was extracted from brain homogenates (Fig. 7b) or MMC cell pellets (Fig. 2) with Trizol (ThermoFisher, Catalog # 15,596,026) according to the manufacturer’s protocol. RNA purity and concentration were assessed using a Nanodrop Spectrophotometer ND-1000 (Marshall Scientific). The 260 nm/280 nm absorption ratios for the samples ranged from 1.95 to 2.00. Subsequently, a cDNA library was made with a High-Capacity cDNA Reverse Transcription Kit (ThermoFisher Scientific, Catalog# 4,374,967), with 2 µg of total RNA per […]. Reactions were carried out in a PTC-200 Peltier Thermal Cycler; the conditions were as follows: 25 °C for 10 min, 37 °C for 120 min, 85 °C for 5 min, with final storage at 4 °C. RT-qPCR reactions were conducted in an Applied Biosystems Viia7 Real-Time PCR System using Maxima SYBR Green/ROX qPCR Master Mix (ThermoFisher Scientific, Catalog #K022) and with the recommended three-step cycling protocol. […] Fold change was calculated by the ∆∆Ct method. […]

[2] = humans; cited from earlier work

NC(=O)C(c1ccccc1)(c1ccc(F)cc1)c1ccc(F)cc1 [senicapoc]
induction of inflammasome component NLRP3 [1]: prevented induction | mRNA levels of iNOS and COX-2 [1]: significantly reduced | mRNA expression of IL-1β, TNF-α, IL-6 and IL-10 ([1]; 1 h pre-incubation): concentration-dependently reduced | half-life [2]: 12 days
